Experimental data from ChEMBL document CHEMBL3860026, “Depsidones from Lichens as Natural Product Inhibitors of M-Phase Phosphoprotein 1, a Human Kinesin Required for Cytokinesis” (J Nat Prod, 2016).
In brackets after ≈: the same amount, converted by molar mass. One block for each molecule: values may come before it. Activity calls are given as the source filed them. The calls are words filed in the database; no cut-off is given here.

Legend:
[1] = Cytotoxicity against human BxPC3 cells assessed as growth inhibition after 72 hrs by Alamar Blue assay; assay type: functional, cell-based; conditions: BXPC-3, 72 h
[2] = n-octanol-buffer distribution co-efficient, log D of the compound at pH 7.4 by shake flask method; assay type: physicochemical
[3] = Half life in mouse liver microsomes at 3 uM by LC-MS/MS method; assay type: ADME
[4] = Solubility of the compound in phosphate buffered saline at pH 6 after 2 hrs by turbidimetric method; assay type: physicochemical
[5] = molecular target: T1, Kinesin-like protein KIF20B (Homo sapiens, UniProt Q96Q89); assay: Inhibition of microtubule-stimulated ATPase activity of N-terminal His6-tagged/SUMO-fused human MPP1 motor domain (2 to 477 residues) expressed in Escherichia coli BL21 CodonPlus by pyruvate kinase/lactate dehydrogenase-linked assay
[6] = Passive permeability of the compound assessed as compound recovery at 10 uM after 5 hrs by PAMPA; assay type: ADME; conditions: read-out: Drug recovery
[7] = molecular target: T1, Kinesin-like protein KIF20B; assay: Inhibition of microtubule-stimulated ATPase activity of N-terminal His6-tagged/SUMO-fused human MPP1 motor domain (57 to 491 residues) expressed in Escherichia coli BL21 CodonPlus by pyruvate kinase/lactate dehydrogenase-linked assay
[8] = Drug metabolism in human liver microsomes assessed as 2-(2,4-dihydroxy-6-pentylphenoxy)-4-hydroxy-6-pentanoylbenzoic acid formation at 3 uM in presence of NADPH after 5 to 45 mins by LC-MS/MS method; assay type: ADME
[9] = molecular target: T1, Kinesin-like protein KIF20B; assay: Inhibition of basal ATPase activity of N-terminal His6-tagged/SUMO-fused human MPP1 motor domain (57 to 491 residues) expressed in Escherichia coli BL21 CodonPlus by pyruvate kinase/lactate dehydrogenase-linked assay
[10] = Cytotoxicity against human J82 cells assessed as growth inhibition after 72 hrs by Alamar Blue assay; assay type: functional, cell-based; conditions: J82, 72 h
[11] = Efflux ratio of apparent permeability across basolateral to apical over apical to basolateral side in human Caco2 cells at 10 uM after 2 hrs by LC-MS/MS method; assay type: ADME, cell-based; conditions: Caco-2
[12] = molecular target: T1, Kinesin-like protein KIF20B; assay: Inhibition of basal ATPase activity of N-terminal His6-tagged/SUMO-fused human MPP1 motor domain (2 to 477 residues) expressed in Escherichia coli BL21 CodonPlus in presence of 0.1% Tween-20 by pyruvate kinase/lactate dehydrogenase-linked assay
[13] = Half life in human liver microsomes at 3 uM by LC-MS/MS method; assay type: ADME
[14] = Intrinsic clearance in human liver microsomes assessed per mg of protein at 3 uM after 5 to 60 mins by LC-MS/MS method; assay type: ADME; conditions: read-out: CLH
[15] = Cytotoxicity against human UM-UC-3 cells assessed as growth inhibition after 72 hrs by Alamar Blue assay; assay type: functional, cell-based; conditions: UMUC3, 72 h
[16] = Cytotoxicity against human HCT116 cells assessed as growth inhibition after 72 hrs by Alamar Blue assay; assay type: functional, cell-based; conditions: HCT-116, 72 h
[17] = Apparent passive permeability of the compound at 10 uM after 5 hrs by PAMPA; assay type: ADME; conditions: PAMPA
[18] = Drug metabolism in human liver microsomes assessed as 3,8-dihydroxy-6-(5-hydroxypentyl)-1-pentanoyl-11H-dibenzo[b,e][1,4]dioxepin-11-one formation at 3 uM in presence of NADPH after 5 to 45 mins by LC-MS/MS method; assay type: ADME
[19] = Solubility of the compound in phosphate buffered saline at pH 7.4 after 2 hrs by turbidimetric method; assay type: physicochemical
[20] = Solubility of the compound in phosphate buffered saline at pH 2 after 2 hrs by turbidimetric method; assay type: physicochemical
[21] = molecular target: T1, Kinesin-like protein KIF20B; assay: Inhibition of basal ATPase activity of N-terminal His6-tagged/SUMO-fused human MPP1 motor domain (2 to 477 residues) expressed in Escherichia coli BL21 CodonPlus by pyruvate kinase/lactate dehydrogenase-linked assay
[22] = Drug metabolism in human liver microsomes assessed as methyl 2,4-dihydroxy-6-pentanoylbenzoate formation at 3 uM in presence of NADPH after 5 to 45 mins by LC-MS/MS method; assay type: ADME
[23] = Intrinsic clearance in mouse liver microsomes assessed per mg of protein at 3 uM after 5 to 60 mins by LC-MS/MS method; assay type: ADME; conditions: read-out: CLH
[24] = molecular target: T1, Kinesin-like protein KIF20B; assay: Inhibition of basal ATPase activity of N-terminal His6-tagged/SUMO-fused human MPP1 motor domain (57 to 491 residues) expressed in Escherichia coli BL21 CodonPlus in presence of 0.1% Tween-20 by pyruvate kinase/lactate dehydrogenase-linked assay
[25] = Cytotoxicity against human K562 cells assessed as growth inhibition after 72 hrs by Alamar Blue assay; assay type: functional, cell-based; conditions: K562, 72 h
[26] = Drug level in human liver microsomes treated with norlobaridone at 3 uM in presence of NADPH after 5 to 45 mins by LC-MS/MS method; assay type: ADME

T1 sequence (Q96Q89 whole entry, the tested form may be a part): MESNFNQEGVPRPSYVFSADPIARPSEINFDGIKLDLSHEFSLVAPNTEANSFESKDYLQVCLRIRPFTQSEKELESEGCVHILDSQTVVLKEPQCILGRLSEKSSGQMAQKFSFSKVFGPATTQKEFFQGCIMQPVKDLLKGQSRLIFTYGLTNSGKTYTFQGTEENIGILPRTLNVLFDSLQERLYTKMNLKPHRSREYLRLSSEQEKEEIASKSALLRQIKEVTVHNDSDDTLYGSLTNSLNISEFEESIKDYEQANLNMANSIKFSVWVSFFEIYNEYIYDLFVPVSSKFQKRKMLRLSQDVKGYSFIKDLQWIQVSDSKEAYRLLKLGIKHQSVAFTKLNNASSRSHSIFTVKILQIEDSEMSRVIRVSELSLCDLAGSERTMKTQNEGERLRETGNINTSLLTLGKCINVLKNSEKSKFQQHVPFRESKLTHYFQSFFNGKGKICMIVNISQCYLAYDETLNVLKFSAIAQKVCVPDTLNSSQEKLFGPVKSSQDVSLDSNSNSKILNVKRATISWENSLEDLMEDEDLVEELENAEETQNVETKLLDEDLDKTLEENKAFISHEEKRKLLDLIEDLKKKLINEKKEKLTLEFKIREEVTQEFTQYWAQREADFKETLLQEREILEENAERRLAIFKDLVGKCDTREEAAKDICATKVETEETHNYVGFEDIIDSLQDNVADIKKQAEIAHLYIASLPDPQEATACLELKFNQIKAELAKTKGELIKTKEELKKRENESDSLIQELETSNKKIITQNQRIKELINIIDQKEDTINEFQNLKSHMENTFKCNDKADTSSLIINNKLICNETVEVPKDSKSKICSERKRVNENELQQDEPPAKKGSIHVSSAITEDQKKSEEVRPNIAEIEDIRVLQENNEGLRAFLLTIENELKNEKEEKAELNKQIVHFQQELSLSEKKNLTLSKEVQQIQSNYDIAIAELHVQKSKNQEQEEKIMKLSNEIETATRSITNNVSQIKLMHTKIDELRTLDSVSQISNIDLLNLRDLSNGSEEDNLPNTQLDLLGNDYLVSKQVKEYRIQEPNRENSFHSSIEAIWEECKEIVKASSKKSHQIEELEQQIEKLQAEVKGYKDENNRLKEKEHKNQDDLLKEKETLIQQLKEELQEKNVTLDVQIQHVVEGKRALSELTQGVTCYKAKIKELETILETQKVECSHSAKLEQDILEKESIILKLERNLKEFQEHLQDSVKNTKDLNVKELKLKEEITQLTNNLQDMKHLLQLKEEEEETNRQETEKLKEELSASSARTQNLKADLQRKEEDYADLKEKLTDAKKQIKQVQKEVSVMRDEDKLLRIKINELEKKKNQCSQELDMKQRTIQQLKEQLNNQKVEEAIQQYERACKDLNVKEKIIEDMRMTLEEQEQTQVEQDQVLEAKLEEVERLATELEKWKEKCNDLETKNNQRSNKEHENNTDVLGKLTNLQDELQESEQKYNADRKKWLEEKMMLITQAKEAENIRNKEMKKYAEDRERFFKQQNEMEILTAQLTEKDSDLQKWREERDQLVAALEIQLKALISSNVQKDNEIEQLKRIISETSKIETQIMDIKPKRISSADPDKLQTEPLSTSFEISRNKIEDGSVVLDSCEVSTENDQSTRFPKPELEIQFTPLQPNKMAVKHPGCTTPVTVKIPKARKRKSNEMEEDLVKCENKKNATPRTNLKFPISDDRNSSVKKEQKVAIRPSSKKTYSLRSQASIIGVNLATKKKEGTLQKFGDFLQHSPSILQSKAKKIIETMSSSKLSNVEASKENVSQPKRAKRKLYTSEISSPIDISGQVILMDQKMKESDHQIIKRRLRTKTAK

logD [2]: 3.5 | half-life at 3 µM [3]: 3.1 min | solubility kinetic at 2 h [4]: 3.75 µM (≈ 1.49 µg/mL) | IC50 [5]: 7.6 µM | Imax [5]: 90% | recovery at 5 h, 10 µM [6]: 95.1% | IC50 [7]: 24.4 µM | Imax [7]: 90% | Drug metabolism [8]: Metabolite_Detected | IC50 [9]: 18.7 µM | Imax [9]: 75% | efflux ratio at 2 h, 10 µM [11]: 0.51 | inhibition [12]: Active | half-life at 3 µM [13]: 3.5 min | microsomal CLint at 3 µM [14]: 393 µL/min/mg | Papp at 5 h, 10 µM [17]: 32.4 ×10⁻⁶ cm/s | Drug metabolism [18]: Metabolite_Detected | solubility kinetic at 2 h [19]: 37.5 µM (≈ 14.9 µg/mL) | solubility kinetic at 2 h [20]: 6.5 µM (≈ 2.59 µg/mL) | IC50 [21]: 10.8 µM | Imax [21]: 80% | Drug metabolism [22]: Metabolite_Detected | microsomal CLint at 3 µM [23]: 452 µL/min/mg | inhibition [24]: Active
SMILES: CCCCCc1cc(O)cc2c1Oc1cc(O)cc(C(=O)CCCC)c1C(=O)O2
EC50 [1]: 33.1 µM | EC50 [10]: 48.3 µM | EC50 [15]: 30.5 µM | EC50 [16]: 42.9 µM | EC50 [25]: 43.7 µM

Drug metabolism [26]: Metabolite_Detected
SMILES: CCCCC(=O)c1cc(O)cc(O)c1C(=O)OC

Drug metabolism [26]: Metabolite_Detected
SMILES: CCCCC(=O)c1cc(O)cc2c1C(=O)Oc1cc(O)cc(CCCCCO)c1O2

Drug metabolism [26]: Metabolite_Detected
SMILES: CCCCCc1cc(O)cc(O)c1Oc1cc(O)cc(C(=O)CCCC)c1C(=O)O

SMILES: CCCCCc1c2c(cc(O)c1C(=O)O)OC(=O)c1c(cc(OC)cc1C(=O)CCCC)O2 [LOBARIC ACID]
EC50 [1]: 1.6 µM | EC50 [10]: 3.6 µM | EC50 [15]: 3.7 µM | EC50 [16]: 0.8 µM | EC50 [25]: 1.4 µM

SMILES: Cc1cc(O)cc2c1C(=O)Oc1cc3c(c(O)c1O2)C(=O)OC3 [VARIOLARIC ACID]
EC50 [10]: > 50 µM | EC50 [15]: > 100 µM | EC50 [16]: > 100 µM | EC50 [25]: > 100 µM
